Measurements from patent US20260183274A1, “PDK1 REGULATORY COMPOUND AND COMPOSITION CONTAINING THE SAME” (PROVIBIO CO., LTD., priority 2024, published 2026).

How the values were obtained:
[1] = system: T cells isolated from mouse spleens; assay: T cell proliferation inhibition (CFSE flow cytometry, anti-CD3/anti-CD28 stimulation); format: cell-based; conditions: mouse spleen T cells, 3 days; for inhibition at 0.01 µM / inhibition at 0.1 µM / inhibition at 1 µM / inhibition at 10 µM / inhibition at 30 µM / inhibition at 50 µM: Mus musculus, T-cell, 72 h, read-out: Proliferation inhibition rate (%)
Summary of the method: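 Splenic T cells from 7-week-old C57BL/6 mice were MACS-isolated, CFSE-labelled, seeded at 2×10^5 cells/well and activated with anti-CD3/anti-CD28 (0.5 μg/mL each). Compound at 10 nM–50 μM (six levels, triplicate) was present for 3 days at 37 °C before flow cytometric readout of proliferation inhibition rate.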

[2] = system: Human B Lymphocyte cell line, SU-DHL-8; assay: Relative cell viability CCK-8, SU-DHL-8; format: cell-based; conditions: 48 hours, untreated (DMSO) = 100%; for viability at 1 µM / viability at 10 µM / viability at 30 µM / viability at 50 µM: Homo sapiens, SU-DHL-8, 48 h; for viability at 1 µM: read-out: Relative cell viability (%), SU-DHL-8, 1 μM; for viability at 10 µM: read-out: Relative cell viability (%), SU-DHL-8, 10 μM; for viability at 30 µM: read-out: Relative cell viability (%), SU-DHL-8, 30 μM; for viability at 50 µM: read-out: Relative cell viability (%), SU-DHL-8, 50 μM
Summary of the method: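 Cells grown in RPMI-1640 with 10% FBS, treated with compound at several concentrations, then given CCK-8 for 4 h at 37° C. Viability expressed as percent of DMSO-treated cells.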

| Structure (SMILES) | Proliferation inhibition rate (%) ([1]; compound 10 nM) | Proliferation inhibition rate (%) ([1]; compound 100 nM) | Proliferation inhibition rate (%) ([1]; compound 1 μM) | Proliferation inhibition rate (%) ([1]; compound 10 μM) | Proliferation inhibition rate (%) ([1]; compound 30 μM) | Proliferation inhibition rate (%) ([1]; compound 50 μM) | Relative cell viability (%), SU-DHL-8 ([2]; 1 μM) | Relative cell viability (%), SU-DHL-8 ([2]; 10 μM) | Relative cell viability (%), SU-DHL-8 ([2]; 30 μM) | Relative cell viability (%), SU-DHL-8 ([2]; 50 μM) | inhibition at 0.01 µM ([1]; compound 10 nM) | inhibition at 0.1 µM ([1]; compound 100 nM) | inhibition at 1 µM ([1]; compound 1 μM) | inhibition at 10 µM ([1]; compound 10 μM) | inhibition at 30 µM ([1]; compound 30 μM) | inhibition at 50 µM ([1]; compound 50 μM) | viability at 1 µM [2] | viability at 10 µM [2] | viability at 30 µM [2] | viability at 50 µM [2] | other results |
| --- | --- | --- | --- | --- | --- | --- | --- | --- | --- | --- | --- | --- | --- | --- | --- | --- | --- | --- | --- | --- | --- |
| Cl.Nc1ncccc1C(=O)NCCCCCCCCCCCCF [Compound 69, 3-(12-fluoro-dodecylcarbamoyl)-pyridin-2-yl-ammonium chloride] | −4.04% | −4.66% | 7.14% | 65.36% | 89.94% | 99.20% | 27.80% | 15.16% | 1.05% | 0.77% |  |  |  |  |  |  |  |  |  |  |  |
| Nc1ccncc1C(=O)NCCCCCCCCCCCCF [Compound 73, 4-Amino-N-(12-fluoro-dodecyl)-nicotinamide] |  |  |  |  |  |  |  |  |  |  | -6.44% | 5.75% | 7.4% | 84.8% | 100% | 100% | 11.9% | 5.03% | 0.98% | 0.91% |  |
| Nc1ncccc1C(=O)NCCCCCCCCCCCCn1nnc2cccnc21 [Compound 88, N-(12-(3H-[1,2,3]triazolo[4,5-b]pyridin-3-yl)dodecyl)-2-aminonicotinamide] |  |  |  |  |  |  |  |  |  |  | -3.22% | 4.29% | 56.3% | 100% | 100% | 100% | 12.6% | 5.98% | 5.06% | 2.23% |  |
| Cl.O=C(NCCCCCCCCCCCCN1CCNCC1)c1ccc(-c2ccccc2)o1 [Compound 90, 5-Phenyl-N-(12-(piperazin-1-yl)dodecyl) furan-2-carboxamide hydrochloride] | −8.27% | −2.03% | 66.18% | 100.00% | 100.00% | 100.00% | 7.19% | 5.94% | 2.48% | 1.94% |  |  |  |  |  |  |  |  |  |  |  |
| CN1CCN(CCCCCCCCCCCCNC(=O)c2ccc3[nH]cnc3c2)CC1 [Compound 91, N-(12-(4-methylpiperazin-1-yl)dodecyl)-1H-benzo[d]imidazole-5-carboxamide] |  |  |  |  |  |  |  |  |  |  | -14.6% | 100% | 100% | 100% | 100% | 100% | 3.93% | 3.12% | 1.84% | 1.59% |  |
| CN1CCN(CCCCCCCCCCCCNC(=O)c2cccnc2F)CC1 [Compound 121, 2-fluoro-N-(12-(4-methylpiperazin-1-yl)dodecyl) nicotinamide] | 0.00% | 0.00% | 0.00% | 30.00% | 100.00% | 100.00% | 34.89% | 28.99% | 29.04% | 31.11% |  |  |  |  |  |  |  |  |  |  |  |
| Nc1ncccc1C(=O)NCCCCCCCCCCCCN1CC(F)(F)C1 [Compound 122, 2-Amino-N-(12-(3,3-difluoroazetidin-1-yl)dodecyl) nicotinamide] | 0.00% | 0.00% | 80.00% | 100.00% | 100.00% | 100.00% | 31.84% | 31.91% | 32.93% | 35.70% |  |  |  |  |  |  |  |  |  |  |  |
| Nc1ncccc1C(=O)NCCCCCCCCCCCCn1ncc2ccc(Cl)nc21 [Compound 123, 2-Amino-N-(12-(6-chloro-1H-pyrazolo[3,4-b]pyridin-1-yl)dodecyl)nicotinamide] |  |  |  |  |  |  |  |  |  |  | -2.54% | 4.78% | 48.4% | 100% | 100% | 100% | 42.2% | 42.2% | 44.6% | 48.8% |  |
| CN1CCN(C2CCN(CCCCCCCCCCCCNC(=O)c3cccnc3N)CC2)CC1 [Compound 124, 2-Amino-N-(12-(4-(4-methylpiperazin-1-yl)piperidin-1-yl)dodecyl)nicotinamide] |  |  |  |  |  |  |  |  |  |  | 0% | 20% | 30% | 100% | 100% | 100% | 30.4% | 30.7% | 32.1% | 31.7% |  |
| COc1cc2c(cc1OC)CN(CCCCCCCCCCCCNC(=O)c1cccnc1N)CC2 [Compound 125, 2-Amino-N-(12-(6,7-dimethoxy-3,4-dihydroisoquinolin-2 (1H)-yl)dodecyl)nicotinamide] |  |  |  |  |  |  |  |  |  |  | -4.48% | 100% | 100% | 100% | 100% | 100% | 42% | 42.6% | 42% | 42.7% |  |
| COC1CCN(CCCCCCCCCCCCNC(=O)c2cccnc2N)C1 (stereo not shown) [Compound 126, 2-amino-N-(12-(3-methoxypyrrolidin-1-yl)dodecyl) nicotinamide] |  | 100.00% | 100.00% | 100.00% | 100.00% | 100.00% |  |  |  |  |  |  |  |  |  |  |  |  |  |  | Proliferation inhibition rate (%) ([1]; compound 10 nM, listed as K-PB-48, 0.01 µM): 0.00%; Relative cell viability (%), SU-DHL-8 ([2]; 1 μM, listed as K-PB-48, 1 µM): 33.03%; Relative cell viability (%), SU-DHL-8 ([2]; 10 μM, listed as K-PB-48, 10 µM): 31.98%; Relative cell viability (%), SU-DHL-8 ([2]; 30 μM, listed as K-PB-48, 30 µM): 32.32%; Relative cell viability (%), SU-DHL-8 ([2]; 50 μM, listed as K-PB-48, 50 µM): 30.44% |
| Nc1ncccc1C(=O)NCCCCCCCCCCCCN1CC=CC1 [Compound 129, 2-amino-N-(12-(2,5-dihydro-1H-pyrrol-1-yl)dodecyl) nicotinamide] | 0.00% | 90.00% | 100.00% | 100.00% | 100.00% | 100.00% | 34.26% | 33.99% | 35.05% | 34.27% |  |  |  |  |  |  |  |  |  |  |  |
| Nc1ncccc1C(=O)CCCCCCCCCCCCCN1CC2CCC(C1)O2 [Compound 131, 1-(2-aminopyridin-3-yl)-14-(8-oxa-3-azabicyclo[3.2.1]octan-3-yl)tetradecan-1-one] |  |  |  |  |  |  |  |  |  |  | -6.12% | 100% | 100% | 100% | 100% | 100% | 44.8% | 42.1% | 42.7% | 42.5% |  |
